Measured values reported in EP4813381A1, “PHARMACEUTICAL USE OF GUAIANE SESQUITERPENE DERIVATIVE” (Nanjing University Of Chinese Medicine, priority 2023, dated 2025).

How the values were obtained:
[1] = tested on: MC903-induced atopic dermatitis (AD); assay: MC903-induced AD model on the dorsum of mice, Compound 1 ointment: skin thickness and dermatitis score; type: in vivo; parameters: Skin thickness: unit not given here; conditions: for inhibition rate (dorsal skin thickness): final day; for Dermatitis Score: back, score max 12; for Skin thickness: dorsal region, AD mice
Method: Weigh white petrolatum, light liquid paraffin, glyceryl monostearate, ethylparaben, and cetyl alcohol. Heat to 65 °C while stirring until dissolved. Slowly add the dissolved active pharmaceutical ingredient (API) while continuing to stir until uniformly mixed. Set aside. • (2) Aqueous Phase Preparation: […] Slowly add the aqueous phase to the oil phase while maintaining 65 °C, homogenize, and continue stirring for 30 min; • (4) Cooling: Stop heating, continue stirring, gradually reduce to room temperature, cool to form an ointment, and fill containers. […] Dissolve these substances in a small amount of propylene glycol, then place the resulting solution into the aforementioned pre-cooled blank ointment base. […] Establishment of the AD Model on the Dorsum of Mice and Drug Administration: […] Except for the Normal group, all other groups underwent AD modeling: 48 hours prior to the experiment, hair on the dorsal neck region was meticulously removed using clippers and depilatory cream. […] Model and control group mice received daily application of blank ointment. Twenty-four hours after completing the 14-day modeling period, photographs of skin lesions were taken, and skin lesion and blood samples were collected. Skin Lesion Severity Score: […] Statistical analysis was performed on the data.

[2] = tested on: CCl4-induced liver injury; assay: CCl4 acute liver injury model in mice: serum ALT and AST; type: in vivo, C57BL/6 mice; conditions: 3 days (method: U/L)
Text: The drug of the present invention, prepared according to Example 2; Silybin, Shanghai Yuanye Biotechnology Co., Ltd.; Olive oil, Beijing […] Olive Oil Development Center; Analytical grade carbon tetrachloride (CCl4), Shantou Xilong Chemical Factory; Sodium carboxymethyl cellulose (CMC-Na), Guangdong Shantou Xilong Chemical Factory; RNA Isolater Total RNA Extraction Reagent, […] RT Supermix for qPCR, Nanjing Vazyme Biotech Co., Ltd.; AceQ qPCR SYBR Green Master Mix, Shanghai Yeasen Biotechnology Co., Ltd.; Aspartate Transaminase (AST/GOT) Colorimetric Test Kit, Alanine Transaminase (ALT/GPT) Colorimetric Test Kit, Wuhan Elabscience Biotechnology Co., Ltd. • Experimental animals: […] SCXK(Su)2019-002. […] They were acclimated for 7 days before use in experiments. • Experimental Methods: Establishment of Acute Liver Injury Model in Mice and Group-Specific Drug Administration • Mice were randomly assigned to groups. […] One hour after the final drug administration, blood was collected from the retinal venous plexus. […] Serum was aspirated, aliquoted, and stored at -70 °C for future use. After blood collection, euthanize mice by cervical dislocation. Perform laparotomy to remove the liver. Rinse twice with pre-chilled PBS. Excise the left hepatic lobe tissue. […] Store remaining tissue at -70 °C for future use. • Serum AST and ALT Assay: Use 10 μL of each sample for testing. Determine mouse serum AST and ALT levels according to the operating manual. Measure absorbance at 510 nm using an enzyme-linked immunosorbent assay (ELISA) reader. Calculate sample concentration (U/L) based on the standard curve. Data Statistics: All data are expressed as means ± standard error of the mean (S.E.M.). Differences were analyzed for significance using analysis of variance (ANOVA). For groups showing significant differences in ANOVA, one-way ANOVA followed by Dunnett's test was performed to compare intergroup differences.

Hepa1-6 cells = type: in vivo; conditions: Hepa1-6 xenograft, male C57BL/6 mice, compound 20 alone, dose 1 (head µmol/kg/day; text 1 mg/kg/day), intraperitoneal daily, 2 weeks
Method: Hepa1-6 cells were cultured and expanded in vitro. An appropriate amount of cells in the logarithmic growth phase was resuspended in a mixture of serum-free DMEM medium and Matrigel (1:1). Under sterile conditions, prepare a cell suspension at 2.5 × 10^6 cells/100 µL. Using a syringe, inject 100 µL of the cell suspension subcutaneously into the left forelimb axilla of male C57BL/6 mice. […]. […] During the treatment period, mouse body weight and tumor diameter were measured daily. At the end of the experiment, mice were euthanized by cervical dislocation, and tumors were removed and weighed. Tumor volume (TV) was calculated using the formula: TV = 1/2 × a × b^2, where a represents the longest diameter of the tumor and b represents the shortest diameter.

[3] = tested on: renal injury markers (Kim-1, Ngal), inflammatory factors (MCP-1, TNF-α); assay: Diabetic nephropathy (DKD) mice: Q-PCR of kidney tissue; type: in vivo, C57/BL6J mice; conditions: kidney mRNA, gavage 10 mg/kg
Method: Production license number: SCXK(Su)2023-0009. […] Animals were acclimated for 7 days before use in experiments.
Administer streptozotocin (STZ, 50 mg/kg) via intraperitoneal injection for 5 consecutive days. After 72 hours, select mice with fasting blood glucose levels exceeding 16.7 mmol/L as model mice. […] Model mice were fed a high-fat diet (HFD) providing 60% of energy from fat for 8 weeks. After 8 weeks, gavage administration commenced.
Specimen Collection: One hour after the last drug administration, enucleate the eyeball to collect blood. Allow blood to stand at room temperature for 2 hours, then centrifuge at 3000 rpm for 20 minutes. Aspirate the serum, aliquot it, and store at -70 °C for future use. After blood collection, euthanize the mice by cervical dislocation. Open the abdominal cavity, remove the kidneys, and dissect away the perirenal fat and capsule. Store the tissue at -70 °C for future use.
Additional primer information is as follows: Table 24. Additional Information on Q-PCR Primers

lupus nephritis = assay: Lupus nephritis MRL/lpr mice: urinary protein, Scr, BUN, urinary Kim-1 and β-MG; type: in vivo; parameters: Scr / BUN / Kim-1 / β-MG: unit not given here; conditions: oral 30 mg/kg, 8 weeks
Method: RT Supermix for qPCR, Nanjing Vazyme Biotech Co., Ltd.; Urea Colorimetric Test Kit, Creatinine Colorimetric Test Kit, Nanjing Jiancheng Biotechnology Co., Ltd.; Urinary Kim-1 and β-MG Content ELISA Kits, Abcam. • Experimental animals: MRL/MpJ and MRL/lpr mice, female, 10 weeks old, purchased from GemPharmatech LLC. Production license number: SCXK(Su)2023-0009. […] They were acclimated for 7 days before use in experiments. […] Oral administration was performed continuously for 8 weeks. […] Aspirate the serum, aliquot it, and store at -70 °C for future use. After blood collection, euthanize mice by cervical dislocation. Open the abdominal cavity, remove kidneys, and dissect out perirenal fat and capsules. […] Store remaining tissues at -70 °C for future use. Serum Creatinine (Scr) and Blood Urea Nitrogen (BUN) Assay: […] Samples were added sequentially strictly according to the kit instructions, incubated at 37 °C, and measured for absorbance values using an enzyme-linked immunosorbent assay (ELISA) reader. The concentration levels of each indicator were calculated based on the standard curve.

In the case of `C=C1C(=O)O[C@@H]2[C@@H]3[C@]4(CC[C@@]3(C)O)C[C@]4(C)CC[C@@H]12` [compound 1], the “inhibition rate (dorsal skin thickness)” value ([1]; 0.01% Compound 1 ointment) is reported as 66%, the “inhibition rate (dorsal skin thickness)” value ([1]; 0.1% Compound 1 ointment) is reported as 72% and the “inhibition rate (dorsal skin thickness)” value ([1]; 1% Compound 1 ointment) is reported as 83%. The “Dermatitis Score” value ([1]; 0.01% ointment for 7 days) was 3.67±0.33, the “Dermatitis Score” value ([1]; 0.1% ointment for 7 days) was 2.50±0.22 and the “Dermatitis Score” value ([1]; 1% ointment for 7 days) was 2.17±0.17. The Skin thickness ([1]; 0.01% ointment) was 36.06±0.91, the Skin thickness ([1]; 0.1% ointment) was 33.11±0.31 and the Skin thickness ([1]; 1% ointment) was 29.56±0.25. For the same compound, the ALT ([2]; oral 0.1 mg/kg) was 173.58 ± 22.75, the AST ([2]; oral 0.1 mg/kg) was 424.52 ± 175.34 and the ALT ([2]; oral 1 mg/kg) was 104.22 ± 5.21. It also gave an AST ([2]; oral 1 mg/kg) of 237.16±36.70.

In the case of `CN(C)C[C@@H]1C(=O)O[C@H]2[C@H]1CC[C@@]1(C)C[C@]13CC[C@@](C)(O)[C@H]23` [compound 20], the “Tumor Inhibition Rate (%)” value (Hepa1-6 cells) is reported as 72.37%, the “Tumor weight” value (Hepa1-6 cells) is reported as 0.12 ± 0.09 g and the Kim-1 [3] is reported as 0.64±0.10. It also gave a Mcp-1 [3] of 1.40±0.22, a Ngal [3] of 0.96±0.13 and a Tnf-α [3] of 0.96±0.13. For the same compound, the “24-hour urine protein level” value (lupus nephritis) was 0.58±0.03, the BUN (lupus nephritis; serum) was 9.55±0.75 and the Scr (lupus nephritis; serum) was 18.55±1.08. It also gave a Kim-1 (lupus nephritis; urine) of 0.41±0.02 and a β-MG (lupus nephritis; urine) of 13.55±0.14.
